These results are taken from article PMC8620715, “Biological Activity of Triazolopyrimidine Copper(II) Complexes Modulated by an Auxiliary N-N-Chelating Heterocycle Ligands” (Molecules, 2021).

One may read the IC50 as the concentration needed to halve the response being measured. By MIC is commonly meant the least concentration at which growth counts as inhibited. Lower therefore signals greater potency.

For experiment [1], the system named is B16 murine melanoma cell line. Briefly: MTT cell viability assay, B16 melanoma cells. The conditions noted are these: for TI (therapeutic index): BJ vs B16, where no toxicity at highest concentration, a value two times higher was used. It is filed as cell-based, mouse. As for the experimental part:
Human fibroblast cells (BJ—ATCC CRL-2522, USA) were grown in minimal essential medium (MEM) supplemented with 2 mM L-Glutamine, 10% fetal calf serum (FCS), 100 units/mL of penicillin, and 100 µg/mL of streptomycin at 37 °C in a humidified incubator under an atmosphere containing 5% CO2. Mouse melanoma cells (B16—ATCC CRL—6475, USA) were grown in DMEM (Dulbecco’s Modified Eagle Medium) supplemented with similar reagents as MEM. All cell cultivation media and reagents were purchased from Biochrom AG (Berlin, Germany) and Sigma-Aldrich (Darmstadt, Germany).
Cell viability was evaluated using 3-(4,5-dimethylthiazol-2-yl)-2,5-diphenyltetrazolium bromide (MTT) assay as described previously. First, the cells were seeded in 96-well plates (20000 cells/well) and cultured for 24 h in medium. […] The negative control was represented by cells cultivated in a medium without the investigated compounds. Following incubation, the medium was changed, and the MTT solution was added to each well to a final concentration of 1 mg/mL and incubated for an additional 4 h, at 37 °C. Finally, the medium was collected, and DMSO was used to dissolve the insoluble formazan product. The absorbance of the samples was recorded at 570 nm using a plate reader Mithras 940 (Berthold). The data were corrected for the background, and the percentage of viable cells was obtained using the equation:Cell viability = [(A570 of treated cells)/(A570 of untreated cells)] × 100%(1)
The half-maximal inhibitory concentration (IC50) was determined by fitting the data with a sigmoidal logistical equation using the software Origin 8.1 (Microcal Inc., Los Angeles, CA, USA).
(In general: Tetrazolium assays rely on reduction of a dye to a coloured formazan, in cell work by metabolically active cells.)

The subject of experiment [2] is E. coli 25922. Briefly: MIC by broth microdilution. It is filed as cell-based, Escherichia coli. The conditions noted are these: E. coli 25922, planktonic. As for the experimental part:
(§1) The antibacterial assays were carried out using two Gram-negative (Escherichia coli ATCC 25922, Pseudomonas aeruginosa ATCC 27853) and two Gram-positive (Staphylococcus aureus ATCC 25923, MRSA (meticillin-Resistant S. aureus) 388 (ATCC, American Type Culture Collection) bacteria.
The antimicrobial activity of the two complexes (1) and (2) was assessed using their minimum inhibitory concentration (MIC) by the broth microdilution method, as previously described by the Clinical and Laboratory Standard Institute (CLSI; M07-A9 document). A broth microdilution assay was performed in sterile 96-well plates using Muller-Hinton broth (Scharlau; MHB). The compounds solubilized in […] (1,000 μg/mL) were serially diluted in 90 μL MHB, in concentrations ranging between 500 and 0.97 μg/mL. Overnight cultures were used to prepare suspension in phosphate-buffered saline (pH 7.0) to match a 0.5 McFarland density. The bacterial suspensions were further diluted to 1:100 by adding 0.1 mL of bacterial suspension to 9.9 mL of MHB. A volume of 10 μL of this dilution was added to each well of columns 1–10, containing different concentrations of the tested compounds. […] Additionally, 10 μL of the diluted bacterial suspension was added in column 11 (the growth control). A volume of 100 μL MHB was added to the microtiter plates’ sterility control wells (column 12). After inoculation, the plates were incubated at 35 ± 2 °C for 18 h. Growth was measured as light absorbance (620 nm) in comparison to an uninoculated well (negative control). It was detected using a microtiter plate reader (Apollo LB 911ELISA (Berthold Technologies GmbH & Co. KG, Waltham, MA, USA)). The MIC of each compound was defined as the lowest concentration required to inhibit bacterial growth.
A general note: Dilution methods test growth across graded concentrations, often in twofold steps.

For experiment [3], the system named is E. coli 25922. In words: Biofilm formation on polystyrene (crystal violet), MBEC. It is filed as cell-based, Escherichia coli. The conditions noted are these: E. coli 25922, biofilm. The method, then:
as §1
The method for assessment of biofilm formation on polystyrene microtiter plates was based on previously published protocols. The absorbance at 490 nm was measured with an Apollo LB 911ELISA (Berthold Technologies GmbH & Co. KG, Waltham, MA, USA) reader. The minimal biofilm-eradication concentration (MBEC) was defined as the lowest concentration of antibiotics required to eradicate the biofilm. All experiments were performed in triplicate.

A further experiment relates to λ-DNA. Briefly: UV-visible absorption titration with λ-DNA. It is filed as binding, bacteriophage lambda. To be noted: 5 µM complex, increasing DNA. As for the experimental part: To determine if the compounds can interact with DNA, the 48,500 base-pairs genomic DNA from bacteriophage lambda (λ-DNA, Promega, MA, USA) was used. A stock solution of 10 µM λ-DNA (base-pair concentration) was prepared in 10 mMTris/HCl buffer containing 1 mM NaCl, pH 8.
To determine the DNA intercalating ability of complexes (1) and (2), we used the 48,500 base-pairs genomic DNA from the bacteriophage lambda (λ-DNA, Promega, Madison, USA). A 10 µM λ-DNA (base-pair concentration) stock solution was prepared in 10 mM Tris/HCl buffer, pH 8, containing 1 mM NaCl. The UV-visible absorption titration experiments were done using a constant complex concentration (5 µM). […] After DNA addition, the solutions were left to equilibrate for 5 min at room temperature before recording the spectra with a Jasco V-630 spectrophotometer. Stock solutions of compounds (1) and (2) were prepared in DMSO (1 mM) and diluted to 5 µM in 10 mM Tris/HCl containing 1 mM NaCl, pH 8.
The UV-Vis absorption titration experiments were done, keeping the complex concentration constant ([…]) and increasing the concentration of λ-DNA in Tris-HCl/NaCl buffer solution at room temperature until a saturation state was achieved. After DNA addition, the solutions were allowed to equilibrate for 5 min at room temperature. The UV-Vis absorption spectra were recorded with a Jasco V-630 spectrophotometer, using a 10 mm quartz cell. […]

Molecules are shown by their SMILES. Read-outs that look alike come from different tables or passages of the source.

For `Cc1cc(C)n2ncnc2n1.Cc1cc(C)n2ncnc2n1.Cc1cc(C)n2ncnc2n1.O.[Cu+2].[O-][Cl+3]([O-])([O-])[O-].[O-][Cl+3]([O-])([O-])[O-].c1cnc2c(c1)ccc1cccnc12` [Complex (2), [Cu(phen)(dmtp)2(OH2)](ClO4)2·dmtp], the figures for the “TI (therapeutic index)” value in experiment [1] (24 h) and in experiment [1] (48 h) were 1.98 and 1.08, respectively. Also, the “B16 cell viability decreased to” value in experiment [1] (B16) is on record as 5%. The IC50 in experiment [1] (B16, 24 h) is 6.88 µg/mL; in experiment [1] (B16, 24 h, read-out: IC50), 7.6 µM; in experiment [1] (B16, 48 h) it was 4.15 µg/mL; in experiment [1] (B16, 48 h, read-out: IC50), 4.58 µM. Also, in the experiment with E. coli 25922 [2], the MIC was 340 µM. In the experiment on E. coli 25922 [3], the MBEC is listed as 0.17 mM. Also, in the experiment on λ-DNA, the “change of absorption spectrum on binding to λ-DNA” value is on record as “decrease in the absorption intensity”.
In the case of `Cc1cc(C)n2ncnc2n1.Cc1cc(C)n2ncnc2n1.Cc1cc(C)n2ncnc2n1.O.[Cu+2].[O-][Cl+3]([O-])([O-])[O-].[O-][Cl+3]([O-])([O-])[O-].c1ccc(-c2ccccn2)nc1` [Complex (1), [Cu(bpy)(dmtp)2(OH2)](ClO4)2·dmtp], the “TI (therapeutic index)” value in experiment [1] (24 h) is 8.68; in experiment [1] (48 h), 12.82. Besides, the “effect on viability of B16 cells” value in experiment [1] (24 h and 48 h) was “reduced the viability of B16 cells”. Moreover, the IC50 in experiment [1] (B16, 24 h) was 5.76 µg/mL; in experiment [1] (B16, 24 h, read-out: IC50), 6.5 µM; in experiment [1] (B16, 48 h) it was 3.90 µg/mL; in experiment [1] (B16, 48 h, read-out: IC50), 4.42 µM. The MIC in the experiment with E. coli 25922 [2] was found to be 710 µM. The MBEC with E. coli 25922 [3] amounted to 0.71 mM. For the same compound, in the experiment with λ-DNA, the “change of absorption spectrum on binding to λ-DNA” value was “decrease in the absorption intensity”.
